Data: patent US20230027495A1, “METHODS OF TREATING CANCER WITH A COMBINATION OF AN ANTI-PD-1 ANTIBODY AND AN ANTI-TISSUE FACTOR ANTIBODY-DRUG CONJUGATE” (Genmab A/S, priority 2019, published 2023)
Entries after “also recorded” stand apart in the source; their conditions may differ. Non-standard residues stand in square brackets, D forms with d. Residues, ends and D or L forms follow the SMILES beside them. *: point of attachment. Dolaproine = CO[C@@H]([C@@H]1CCCN1)[C@@H](C)C(=O)O; Dil = CC[C@H](C)[C@H](NC)[C@@H](CC(=O)O)OC; X1 = C[C@@H](N*)[C@@H](O)c1ccccc1; NMeV = CN[C@H](C(=O)O)C(C)C

Key:
HeLa cells [1] = assay: ATP and HMGB1 secretion from MMAE-treated HeLa cells; format: cell-based; settings: 100 nM MMAE, over 24 hours, vs untreated cells
Excerpt: Induction of ICD is also characterized by the secretion of ATP and HMGB1. Extracellular ATP serves as a strong chemotactic signal, promoting immune cell migration to the tumor site. Upon arrival, extracellular HMGB1 signals through various pro-inflammatory receptors (TLR2, TLR4, RAGE) to activate antigen-presenting cells, thereby promoting immune activity within the tumor.

[2] = test system: murine tumor cells that stably express human TF; assay: Immunization of Balb/c mice with drug-killed human TF positive murine tumor cells, then tumor challenge (syngeneic model); format: in vivo; settings: mice immunized with drug-killed human TF positive tumor cells
Description: Mouse tumor cells are transfected with plasmid constructs encoding human tissue factor (TF) and sgRNA-guided Cas9 nuclease (sgRNA/Cas9) to generate a murine cell line that expresses the human TF. Fluorescence activated cell sorting (FACS) yields a clonal population of murine tumor cells that stably express human TF, these cells are then treated with 1 μg to 5 μg per ml of tisotumab vedotin or 100 nM of MMAE for 4 days. In order to prepare dying cells for immunization, treated murine tumor cells are overlaid atop Histopaque, and centrifuged at 2000 g for 30 minutes. Dead and dying cells are pelleted underneath the Histopaque layer, and viability assessed by trypan blue exclusion. A sample with approximately <20% live cells as measured by trypan blue exclusion is obtained. Flash-frozen tumor cells are prepared by submerging the cells in liquid nitrogen for 10 seconds, followed by immersion in 37° C. water until completely thawed. The liquid nitrogen freeze-thaw process is repeated 5 times. Dead and dying human TF positive tumor cells are resuspended in phosphate buffered saline (PBS) and 2×10^6 cells are injected into the peritoneum of immune-competent Balb/c mice. Seven days later, mice receive a second immunization with dead and dying cells prepared in the same manner.
Fourteen days after initial immunization with the dead and dying human TF positive tumor cells, mice are subcutaneously implanted with 5×10^6 wild-type tumor cells and monitored for tumor growth. […] As these effects occur in the absence of any administered therapeutic agent, the administration of cells killed by tisotumab vedotin or MMAE is sufficient to generate long-lasting protective immune memory against subsequent tumor cell challenge. Protective immune memory is amplified by treating these mice with tisotumab vedotin in combination with an antibody that binds to murine PD-1.

[3] = test system: human peripheral blood mononuclear cells (PBMCs); assay: Monocyte/macrophage activation in human PBMCs fed drug-killed MDA-MB-231 cells; format: cell-based
Excerpt: FIGS. 7A and 7B is a series of graphs in which Tissue Factor positive MDA-MB-231 cells killed with various agents were fed to human peripheral blood mononuclear cells (PBMCs) and immune activation assessed by increased expression of activations markers on innate CD14+ monocyte/macrophages and induction of chemokine and cytokine production.
Immunogenic cell death, as mediated by MMAE, is regulated cell death that activates adaptive immune responses against antigens from dead and dying tumor cells, and allows for the generation of robust innate immune cell activation and subsequent cytotoxic T cell responses targeted towards specific tumor cell antigens. […] Furthermore, these monocyte/macrophages conditioned by ICD-killed cells promote activation of T cells, as evidenced by production of signature inflammatory cytokines associated with cytotoxic T cell responses.

[4] = test system: Tissue Factor positive cell lines; assay: Cell death and ATP/HMGB1 release from Tissue Factor positive cell lines; format: cell-based; settings: Tissue Factor positive cells
Excerpt: Auristatin ADC payloads disrupt the microtubule networks resulting in altered ER localization and function, which ultimately results in ER stress.

[5] = test system: HPAFII (pancreatic carcinoma) and MDA-MB-231 (breast carcinoma) cells; assay: Western blot of ER stress pathways in HPAFII and MDA-MB-231 cells; format: cell-based
Description: Induction of cell death and release of ICD danger signals occurs concomitant with initiation of an ER stress response. Two Tissue Factor positive cell lines, HPAFII (pancreatic carcinoma) and MDA-MB-231 (breast cell carcinoma) were exposed to tisotumab vedotin ADC, an Isotype-MMAE ADC (H00-MMAE, IgG1 MMAE), or free MMAE for 18 hours and induction of ER stress monitored by western blot analysis. Phosphorylation of inositol-requiring transmembrane kinase/endonuclease 1 (IRE1) was detected after treatment with tisotumab vedotin ADC or MMAE free drug (FIG. 6). […] The ability for auristatins to prime the immune system to recognize tumor antigens opens the door for a myriad of combinatorial therapeutic options.

HeLa cells [6] = assay: Imaging of RFP-tubulin microtubule network and ER in HeLa cells in the presence of MMAE; format: cell-based; settings: 100 nM MMAE
Description: HeLa cells were transduced with a baculovirus encoding RFP-labeled Tubulin (CellLight Tubulin-RFP, ThermoFisher Scientific) and an ER-binding dye (ER-ID Green, Enzo Life Sciences). Cells were treated with 100 nM MMAE and imaged over time in the present of MMAE. Within 2 hours, fragmentation and disassembly of the microtubule network became evident, concurrent with the breakdown of the perinuclear organized ER lattice (FIGS. 2A and 2B). The condensed and mislocalized ER skeleton indicated severe ER stress within 8 hours.

HeLa cells [7] = assay: Western blot of ER stress (IRE1 and JNK phosphorylation) in MMAE-treated HeLa cells; format: cell-based; settings: 100 nM MMAE, 16 hours
Description: HeLa cells, a cervical cancer cell line, were cultured in Minimum Essential Medium (MEM) with 10% FBS, 10 mM HEPES, 1 mM sodium pyruvate, 2 mM L-glutamine, penicillin (100U/ml), and streptomycin (100 μg/ml). HeLa cells were treated with 100 nM MMAE for 16 hours and harvested in radioimmunoprecipitation assay buffer (RIPA) buffer for western blot analysis. Treatment with MMAE led to phosphorylation of the serine threonine kinase IRE1, indicating activation of ER stress. Severe ER stress is a prerequisite to the exposure of pro-phagocytic signals on the surface of tumor cells, and can be indicated by activation of JNK signaling by phosphorylated IRE1.

[8] = test system: human peripheral blood mononuclear cells (PBMCs); assay: T cell activation in CSFE labeled human PBMCs fed drug-killed MDA-MB-231 cells, with or without pembrolizumab; format: cell-based
Excerpt: Induction of the innate immune response following exposure to cancer cells undergoing ICD sets up secondary T cell activation, which can be enhanced by concomitant pembrolizumab treatment.

cervical cancer = settings: cited from earlier work
MDA-MB-231 xenograft = MDA-MB-231 xenograft model in humanized NSG mice; format: in vivo; settings: pembrolizumab alone, first dose 10 mg/kg, then 5 mg/kg every five days, IP
Description: The in vivo anti-tumor efficacy of tisotumab vedotin in combination with an anti-PD-1 monoclonal antibody was evaluated in NOD.Cg-PrkdC^scid Il2rg^tm1Wj1/SzJ (NSG) immunodeficient mice (The Jackson Laboratory, Stock No. 005557), humanized by engraftment with human CD34^+ hematopoietic stem cells (Jackson Laboratories, Sacramento). Mice were subcutaneously inoculated with 5×10^6 MDA-MB-231 cells (breast adenocarcinoma; American Tissue Culture Collection (ATCC), cat. no. HTB-26), in 100 μL phosphate-buffered saline (PBS). Before inoculation, cells were cultured in DMEM with high glucose and HEPES without L-glutamine (Lonza, cat. no. BE12-709F), 10% (v/v) donor bovine serum with iron New Zealand Origin (Thermo Fisher Scientific, DBSI, cat. no. 10371-029), 2 mM L-glutamine (Lonza, cat. no. BE17-605E), 1 mM Na-pyruvate (Lonza, cat. no. BE13-115E), MEM non-essential amino acids (Life Technologies, cat. no. 11140) and 1% (v/v) penicillin/streptomycin (Lonza, cat. no. DE17-603E), in CellSTACK culture chambers (Corning, cat. no. 3313).
Tumor size was determined by caliper measurement at least two times a week and tumor volume was calculated as 0.52×length×width^2. When tumors reached the size of 100 mm^3 mice were randomized in 7 groups (8 mice per treatment group) based on mouse cohort and tumor size (Table 1). Mice were treated with tisotumab vedotin alone (1 mg/kg or 0.5 mg/kg), intravenously, weekly for a maximum of five treatments, or in combination with an anti-PD-1 antibody (i.e., pembrolizumab, KEYTRUDA®, 50 mg concentrate, Merck & Co., Inc., Kenilworth, N.J. USA) or with anti-PD-1 antibody alone. The first dose of the anti-PD-1 antibody (i.e., pembrolizumab) was 10 mg/kg, followed by 5 mg/kg every five days for a maximum of six treatments. Mice in control groups were administered 1 mg/kg of IgG1 isotype control antibody or IgG1 isotype control antibody conjugated to MMAE intravenously, weekly for a maximum of five treatments (Table 1). The IgG1 isotype control antibody is the b12 antibody which is known to bind to HIV-1 gp120. […]

[9] = managed with interruptions of pembrolizumab, corticosteroids and/or other supportive care; cited from earlier work
[10] = HPAFII and MDA-MB-231 cells, 18 hours
[11] = PBMCs fed drug-exposed MDA-MB-231 cells, 48 hours

In the case of `CC[C@H](C)[C@@H]([C@@H](CC(=O)N1CCC[C@H]1[C@H](OC)[C@@H](C)C(=O)N[C@H](C)[C@@H](O)c1ccccc1)OC)N(C)C(=O)[C@@H](NC(=O)[C@@H](NC)C(C)C)C(C)C` [MMAE, Monomethyl auristatin E, reference compound] (H-[NMeV]V[Dil][Dolaproine]-X1), the “secretion of ATP” value (HeLa cells [1]) is reported as “increased secretion”, the “secretion of HMGB1” value (HeLa cells [1]) is reported as “increased secretion” and the “survival after challenge with wild-type tumor cells” value [2] is reported as “increased survival”. For the same compound, the “tumor growth after challenge with wild-type tumor cells” value [2] was “delayed tumor growth”, the “monocyte/macrophage activation by CD86 expression” value ([3]; CD14+ monocyte/macrophages, flow cytometry, PBMCs fed killed MDA-MB-231 cells, compared to IgG1-MMAE ADC or tisotumab alone) was “drove monocyte/macrophage activations” and the “release of innate chemokines” value ([3]; PBMCs fed killed MDA-MB-231 cells, compared to IgG1-MMAE ADC or tisotumab alone) was “induced release of innate chemokines including MIP10”. For the same compound, the “chemotactic and inflammatory mediators from monocyte/macrophages” value ([3]; after uptake of killed Tissue Factor positive cells) was “elicit strong chemotactic and inflammatory mediators”, the ATP secretion/release [4] was “drove robust A) ATP secretion; also recorded: specific to tisotumab vedotin ADC and MMAE treatment” and the HMGB1 release [4] was “HMGB1 release; also recorded: specific to tisotumab vedotin ADC and MMAE treatment”. The “activation of JNK (phosphorylation)” value [5, 10] was “increased phosphorylation”, the “activation of PERK pathway (ATF4 cleavage)” value [5, 10] was “upregulation of ATF4 cleavage” and the “phosphorylation of IRE1” value [5, 10] was “detected”. The “activation of ER stress pathways (phosphorylation of IRE and JNK, cleavage of ATF4)” value ([5]; HPAFII or MDA-MB-231 cells, 16 hours) was “trigger multiple ER stress pathways”, the “microtubule network and ER localization” value (HeLa cells [6]) was “led to disassembly of the microtubule network and subsequent ER mislocalization” and the “time to fragmentation and disassembly of the microtubule network and breakdown of the ER lattice” value (HeLa cells [6]) was at most 2 h. The “time to severe ER stress (condensed and mislocalized ER skeleton)” value (HeLa cells [6]) was at most 8 h, the “phosphorylation of IRE1 and JNK (ER stress)” value (HeLa cells [7]) was “led to phosphorylation of both IRE1 and JNK; also recorded: elicited severe ER stress by phosphorylation of IRE1 and JNK” and the “T cell proliferation (CSFE dilution)” value [8, 11] was “drove T cell proliferation”. For the same compound, the “production of IFNγ” value [8, 11] was “increased; also recorded: production of T cell specific cytokines” and the “production of IL12p70” value [8, 11] was “increased; also recorded: production of T cell specific cytokines”.
In the case of “pembrolizumab: anti-PD-1 monoclonal antibody, checkpoint inhibitor, also known as KEYTRUDA® [reference compound]”, the objective response rate (cervical cancer; 200 mg Q3W, 82 patients with previously treated, advanced cervical cancer) is given as 12%, the “objective response rate (ORR)” value (cervical cancer; 2L+ PD-L1-positive recurrent or metastatic cervical cancer, 42% previously treated with bevacizumab) is given as 14% and the “tumor burden as assessed by tumor volume” value (MDA-MB-231 xenograft) is given as “hardly reduced tumor burden”. For the same compound, the “reversibility of immune-related AEs (irAEs)” value [9] was “most irAEs were reversible”, the “T cell proliferation driven by tisotumab vedotin or MMAE killed cells, effect of added pembrolizumab” value ([8]; 2 mg/ml of pembrolizumab, 48 hours) was “enhanced” and the “cytokine production after tisotumab vedotin or MMAE killed cells, effect of concomitant pembrolizumab” value ([8]; IL12p70 and IFNγ, 48 hours) was “increased”. For the same compound, the “secondary T cell responses after tisotumab vedotin induced ICD, effect of pembrolizumab” value ([8]; concomitant pembrolizumab treatment) was “can be amplified”.
